{"source": "paper PMC4268426", "about": "(Contraception, 2014)", "key": {"clinical": {"assay": "clinical", "details": "female, human, in vivo, po"}, "[1]": {"details": "human, in vivo"}, "[2]": {"details": "pharmacokinetics reported as unaffected; cited from earlier work"}}, "note": "“Also recorded” adds a separate entry of the source. Read-outs that look alike come from different tables or passages of the source."}
{"smiles": "C#C[C@]1(O)CC[C@H]2[C@@H]3CCC4=CC(=O)CC[C@@H]4[C@H]3CC[C@@]21C", "note": "[norethindrone]", "values": [{"measurement": "Tmax", "setting": "clinical", "value": 1.32, "unit": "h"}, {"measurement": "Vd/F", "setting": "clinical", "value": 313, "unit": "L"}, {"measurement": "AUC(0-inf)", "setting": "clinical; 0.35 mg", "value": 0.0338, "unit": "µg·h/mL"}, {"measurement": "AUC(0-t)", "setting": "clinical; 0.35 mg", "value": 0.0167, "unit": "µg·h/mL"}, {"measurement": "Tmax", "setting": "clinical; 0.35 mg", "value": 1.86, "unit": "h"}, {"measurement": "Vd/F", "setting": "clinical; 0.35 mg", "value": 564, "unit": "L"}, {"measurement": "adverse events", "setting": "either group (control and treatment)", "value": "no reports of adverse events"}, {"measurement": "concentration at 24 h", "setting": "female, human, in vivo, po, 0.35 mg", "value": 0.27, "unit": "ng/mL"}, {"measurement": "change in half-life", "setting": "treatment group compared to control group", "value": "unaltered; also recorded: no alteration; also recorded: no change"}, {"measurement": "increase in AUC0-24", "setting": "[1]; female", "value": 50, "unit": "%"}, {"measurement": "increase in AUC0-∞", "setting": "[1]; female", "value": 35, "unit": "%"}, {"measurement": "Cmax", "setting": "[1]; female, po, 0.35 mg", "value": "2.09 (1.49-3.06) ng/mL"}, {"measurement": "CL/F", "setting": "[1]; po", "value": "7.59 (6.22-10.00) L/hr"}, {"measurement": "CL/F", "setting": "[1]; po, 0.35 mg", "value": "10.35 (8.55-12.38) L/hr"}, {"measurement": "decrease in AUC with obesity (trend)", "setting": "[2]", "value": "~ 20%"}, {"measurement": "decrease in Cmax with obesity (trend)", "setting": "[2]", "value": "~ 20%"}]}
